In ChEMBL document CHEMBL1145656, “Production of cytotoxic canthin-6-one alkaloids by Ailanthus altissima plant cell cultures” (J Nat Prod, 1983):
In brackets after ≈: the same amount, converted by molar mass.

Experiment: Cytotoxicity against GPK cells by [3H]thymidine incorporation assay
Type: functional, cell-based
Conditions: Cavia porcellus

| SMILES | IC50 |
| --- | --- |
| COc1cnc2ccc(=O)n3c4ccccc4c1c23 | 5.76 µg/mL (≈ 23 µM) |
| O=c1ccc2c3c(cc[n+]2[O-])c2ccccc2n13 | 4.21 µg/mL (≈ 17.8 µM) |
| COc1cc2nccc3c4ccccc4n(c1=O)c23 [5-METHOXYCANTHINONE] | 5.44 µg/mL (≈ 21.7 µM) |
| O=c1ccc2nccc3c4ccccc4n1c23 [CANTHIN-6-ONE] | 1.11 µg/mL (≈ 5.04 µM) |
